This assay relates to collagen-induced platelet aggregation. Description: Inhibition of collagen-induced platelet aggregation ex vivo. The class given is in vivo, humans. Particulars: collagen 5 μg/ml; citrated platelet-rich plasma (PRPc), aggregometer; oral administration to 18 volunteers; compound A 10 mg, clopidogrel 75 mg. As to the method:
Measurement of the Inhibition of Collagen-Induced Platelet Aggregation:
10 mg of compound A and 75 mg of clopidogrel were administered orally for three days to 18 volunteers previously treated with 75 mg of clopidogrel for 7 days. The effect of the association of compound A and clopidogrel was compared with the effects of compound A and clopidogrel administered separately.
In the course of the test, the percentage inhibition of platelet aggregation ex vivo induced by collagen (5 μg/ml) was calculated by measuring the platelet aggregation on citrated platelet-rich plasma (PRPc) with the aid of an aggregometer.

The results in this text go back to US20100056564A1, “Association of an anti-atherothrombotic agent and an anti-platelet-aggregation agent” (LES LABORATOIRES SERVIER, priority 2003, published 2010).

As to `COC(=O)[C@H](c1ccccc1Cl)N1CCc2sccc2C1` [clopidogrel], the “percentage inhibition of platelet aggregation ex vivo induced by collagen” value is on record as 11%.
